Reference: patent EP0545103A1, “Insecticidal, acaricidal and molluscicidal 1-(substituted) thioalkylpyrroles” (priority 1991, dated 1993)

How the values were obtained:
Assay type in all cases: in vivo
Parameters in all cases: key: 0: no effect; 10-25% kill; 26-35% kill; 36-45% kill; 46-55% kill; 56-65% kill; 66-75% kill; 76-85% kill; 86-99% kill; 9: 100% kill
[1] = test system: Heliothis virescens, egg, tobacco budworm; experiment: Tobacco budworm egg test, dipped cotton leaf and eggs; conditions: mortality rating after 3 days
Protocol: (§1) Test solutions are prepared by dissolving the test compound in a 35% acetone in water mixture to give a concentration of 10,000 ppm. Subsequent dilutions are made with water as needed.
Heliothis virescens, egg, tobacco budworm
A young cotton leaf about 6-7cm in length is dipped in an agitated test suspension for about 3 seconds. Eggs are collected on a cheesecloth and the cloth is cut into 10-20mm squares, each containing approximately 50-100 eggs which are 6-30 hours old. The egg-containing cheesecloth square is similarly dipped in a test suspension and placed on a treated cotton leaf. The combination is dried in a hood and then placed in an 8 ounce Dixie® cup #2168-ST (240ml volume, 6cm tall, 9.5cm top diameter, 8.0cm bottom diameter) into which a 5cm length of damp dental wick has been placed. The cup is covered with a clear plastic lid and held for 3 days, after which mortality counts are made.
(§2) All of the above tests are rated according to the rating scale shown below.

[2] = test system: Spodoptera eridania, 3rd instar larvae, southern armyworm; experiment: Southern armyworm 3rd instar test, dipped limabean leaf; conditions: for ARMYWORM Day 3: rating at 3 days; for ARMYWORM Day 5: rating at 5 days
Protocol: as §1
Spodoptera eridania, 3rd instar larvae, southern armyworm
A Sieva limabean leaf expanded to 7-8 cm in length is dipped in the test solution with agitation for 3 seconds and allowed to dry in a hood. The leaf is then placed in a 100 x 10 mm petri dish containing a damp filterpaper on the bottom and ten 3rd instar caterpillars. At 3 and 5 days, observations are made of mortality, reduced feeding, or any interference with normal molting.
as §2

[3] = test system: Heliothis virescens, 3rd instar tobacco budworm; experiment: Tobacco budworm 3rd instar test, dipped cotton cotyledons; conditions: mortality rating after 3 days
Protocol: as §1
Heliothis virescens, 3rd instar tobacco budworm
Cotton cotyledons are dipped in the test solution and allowed to dry in a hood. When dry, each is cut into quarters and ten sections are placed individually in 30 mL plastic medicine cups containing a 5-7mm long piece of damp dental wick. One 3rd instar caterpillar is added to each cup and the cup is sealed with MYLAR® film. Treatments are maintained for 3 days before a mortality count and observation of reduction in feeding damage are made.
as §2

[4] = test system: Spodoptera eridania, 3rd instar larvae, southern armyworm; experiment: Southern armyworm systemic uptake (stem systemic) test; conditions: cut stem in emulsion 3 days
Text: Spodoptera eridania, systemic uptake, 3rd instar larvae, southern armyworm
Subsequent 10-fold dilutions are made with water as needed. Sieva limabean plants, with the primary leaves expanded to a length of 7-8 cm, are cut off at least 3 cm above the soil level to avoid contamination with soil bacteria which will cause decay of the stem during the test. The cut stem is placed in the test emulsion and wrapped with a bit of cotton to hold the stem off the bottom of the bottle and to limit evaporation. The treated stem is thus maintained for 3 days at 27° C to allow the test compound to be taken up into the plant. Following this, one leaf is removed from the plant and placed in a 100 x 10 mm petri dish with 10 southern armyworms as described above. Mortality counts and observations of feeding damage are made 3 and 5 days later.
as §2

[5] = test system: Diabrotic undecimpunctata howardi, 3rd instar southern corn rootworm; experiment: Southern corn rootworm soil test; conditions: mortality rating after 6 days
Protocol: Diabrotic undecimpunctata howardi, 3rd instar southern corn rootworm
One cc of fine talc is placed in a 30 mL wide-mouth screw-top glass jar. One mL of the appropriate acetone test solution is pipetted onto the talc so as to provide 1.25 and 0.25 mg of active ingredient per jar. The jars are set under a gentle air flow until the acetone is evaporated. The dried talc is loosened, 1 cc of millet seed is added to serve as food for the insects and 25 mL of moist soil is added to each jar. The jar is capped and the contents thoroughly mixed on a Vortex Mixer. Following this, ten 3rd instar rootworms are added to each jar and the jars are loosely capped to allow air exchange for the larvae. The treatments are held for 6 days when mortality counts are made. Missing larvae are presumed dead, since they decompose rapidly and can not be found. The concentrations used in this test correspond approximately to 50 and 10 kg/ha, respectively.
as §2

[6] = test system: Spodoptera eridania, 3rd instar larvae, southern armyworm; experiment: Southern armyworm 7-day residual test; conditions: R designates Residual: 7-day residual foliage, concentration not given; for ARMYWORM Day 3 R: rating at 3 days; for ARMYWORM Day 5 R: rating at 5 days
Protocol: as §1
Spodoptera eridania, 3rd instar larvae, southern armyworm, 7-day residual
The limabean leaves treated in the above test are maintained under high intensity lamps in the greenhouse for 7 days. These lamps duplicate the effects of a bright sunny day in June in New Jersey and are kept on for 14 hour day length. After 7 days, the foliage is sampled and assayed as in the above-said test.
as §2

| SMILES | TOBACCO BUDWORM Egg ([1]; 1000 ppm) | ARMYWORM Day 3 ([2]; 10 ppm) | ARMYWORM Day 5 ([2]; 10 ppm) | ARMYWORM Day 3 ([2]; 100 ppm) | ARMYWORM Day 5 ([2]; 100 ppm) | ARMYWORM Day 3 ([2]; 1000 ppm) | ARMYWORM Day 5 ([2]; 1000 ppm) | TOBACCO BUDWORM 3rd Instar ([3]; 1000 ppm) | ARMYWORM Stem Sys [4] | SOUTHERN CORN ROOTWORM ([5]; 50 (ppm as headed)) | ARMYWORM Day 3 R [6] | ARMYWORM Day 5 R [6] | TOBACCO BUDWORM 3rd Instar ([3]; 100 ppm) | TOBACCO BUDWORM 3rd Instar ([3]; 10 ppm) | SOUTHERN CORN ROOTWORM ([5]; 1 (ppm as headed)) | SOUTHERN CORN ROOTWORM ([5]; 10 (ppm as headed)) | TOBACCO BUDWORM Egg ([1]; 100 ppm) | TOBACCO BUDWORM Egg ([1]; 300 ppm) |
| --- | --- | --- | --- | --- | --- | --- | --- | --- | --- | --- | --- | --- | --- | --- | --- | --- | --- | --- |
| CSCn1c(Br)c(Br)c(C#N)c1SC [Example 43] | 0 | 0 | 0 | 0 | 0 | 9 (100% kill) | 9 (100% kill) | 0 | 0 | 0 | – | – | – | – | – | – | – | – |
| N#Cc1c(Br)c(C(F)(F)F)n(CSc2nc3ccccc3[nH]2)c1-c1ccc(Cl)cc1 [Example 9] | 0 | – | – | 0 | 0 | 6 (66-75% kill) | 7 (76-85% kill) | 0 | 0 | 0 | 9 (100% kill) | 9 (100% kill) | 0 | – | – | – | – | – |
| CN(C)C(=S)SCn1c(Cl)c(Cl)c(C#N)c1-c1ccc(Cl)c(Cl)c1 [Example 32] | 0 | 0 | 0 | – | – | – | – | 0 | 0 | 0 | 0 | 0 | 0 | – | – | – | – | – |
| CC(C)OP(=S)(OC(C)C)SCn1c(-c2ccc(Cl)cc2)c(C#N)c(Br)c1C(F)(F)F [Example 27] | 0 | 0 | 0 | 9 (100% kill) | 9 (100% kill) | 9 (100% kill) | 9 (100% kill) | 9 (100% kill) | 0 | 9 (100% kill) | 9 (100% kill) | 9 (100% kill) | 7 (76-85% kill) | 0 | 6 (66-75% kill) | 7 (76-85% kill) | – | – |
| CCN(CC)C(=S)SCn1c(-c2ccc(Cl)cc2)c(C#N)c(Br)c1C(F)(F)F [Example 26] | 0 | 9 (100% kill) | 9 (100% kill) | 9 (100% kill) | 9 (100% kill) | 9 (100% kill) | 9 (100% kill) | 9 (100% kill) | 0 | – | 9 (100% kill) | 9 (100% kill) | 9 (100% kill) | 9 (100% kill) | 0 | – | – | – |
| CN(C)C(=S)SCn1c(Br)c(Br)c(C#N)c1Br [Example 31] | 0 | 0 | 0 | 9 (100% kill) | 9 (100% kill) | 9 (100% kill) | 9 (100% kill) | 6 (66-75% kill) | 0 | 0 | 9 (100% kill) | 9 (100% kill) | – | – | – | – | – | – |
| N#Cc1c(Br)c(C(F)(F)F)n(CS(=O)(=O)c2ccccc2)c1-c1ccc(Cl)cc1 [Example 46] | 0 | 0 | 0 | 0 | 0 | 9 (100% kill) | 9 (100% kill) | – | 0 | 8 (86-99% kill) | 4 (46-55% kill) | 9 (100% kill) | – | – | 0 | 0 | – | – |
| N#Cc1c(Br)c(Br)n(CSCc2ccccc2)c1Br [Example 40] | 0 | 0 | 0 | 0 | 0 | 9 (100% kill) | 9 (100% kill) | 0 | 0 | 0 | 0 | – | 0 | – | – | – | – | – |
| N#Cc1c(Br)c(Br)n(CSC(=N)N)c1Br [Example 20] | 0 | 0 | 0 | 9 (100% kill) | 9 (100% kill) | 9 (100% kill) | 9 (100% kill) | 9 (100% kill) | – | 0 | 6 (66-75% kill) | – | 0 | 0 | – | – | 0 | 0 |
| N#Cc1c(Br)c(C(F)(F)F)n(CSc2nc3ccccc3o2)c1-c1ccc(Cl)cc1 [Example 6] | 0 | 0 | – | 9 (100% kill) | – | 9 (100% kill) | – | – | 0 | – | 9 (100% kill) | 9 (100% kill) | – | 0 | 0 | – | – | – |
